Measurements taken from patent US11318077B2, “Retinaldehyde containing compositions and methods of use” (RODAN & FIELDS, LLC, priority 2017, dated 2022).

Key:
[1] = tested on: melanin production in MelanoDerm™ skin substitute; assay: Melanin-modulatory effect in MelanoDerm skin substitutes (color measurement, melanin extraction); format: cell-based; conditions: for Color measurement (whitening units) / Melanin Content / Melanin Content (% control) / Raw *L values: 2 weeks
Description: Objective: The objective of this assay was to determine the ability of the test materials (dimethylisosorbide [DMI], retinoic acid [ATRA], 10% w/w NEAR-1 in dimethylisosorbide [NEAR-1], Niacinamide PC [NAD], and Kojic Acid [KA]) and combinations thereof to inhibit melanin production in MelanoDerm™ skin substitute model. The effect of these experimental conditions on the secretion of the proinflammatory cytokine IL-8 was also assessed, as a surrogate for skin irritation potential.
Tissues were equilibrated at 37° C. for 60 min. and undiluted samples (25 μl) of test materials were applied on top of tissues in duplicates. DMI and kojic acid were applied at 2.5% and 2% (w:v) respectively (dissolved in double distilled water). Tissue culture was pursued in the pigmentation-inducing medium EPI-100-NMM-113 for 14 days, with reapplication of test materials and changes of tissue culture media every 2-3 days.
At the end of the experiment, tissue pigmentation was quantified non-invasively with NS800 portable spectrophotometer (3NH Technology Co., Ltd., China). This instrument is a reflectance spectrophotometer that measures reflected light in the visible spectrum (range: 400-700 nm) recording colors in a three-dimensional space known as CIEL*a*b* color space. In this project, the L* value representing the lightness of the color was used for color assessment. For the purpose of this experiment, the range of the L* parameter spanned from 17.8 (black background) to 87.8 (white background).
For melanin quantification, the MelanoDerms were frozen, solubilized in Solvable™ (Perkin Elmer) and melanin was extracted at 95° C. overnight. The colorimetric signals proportional to the concentration of extracted melanin, as well as those proportional to the IL-8 in the tissue-conditioned medium in the ELISA test were quantified with Molecular Devices microplate spectrophotometer MAX190 at 490 nm and 405 nm.

MelanoDerm tissues = assay: Cytotoxicity by microscopic observation of MelanoDerm tissues; format: cell-based; conditions: 2 weeks
Description: Tissues were equilibrated at 37° C. for 60 min. and undiluted samples (25 μl) of test materials were applied on top of tissues in duplicates. DMI and kojic acid were applied at 2.5% and 2% (w:v) respectively (dissolved in double distilled water). Tissue culture was pursued in the pigmentation-inducing medium […]-113 for 14 days, with reapplication of test materials and changes of tissue culture media every 2-3 days. Results and Discussion: From the macroscopic documentation of all the MelanoDerm tissues at the end of the experiment, differences of color are clearly visible between the solvent controls and some test materials. Table 34 informs whether cytotoxicity may have played a role in these differences. Table 34 also reports the non-invasive MelanoDerm color measurement performed with portable spectrophotometer. [table]

[2] = tested on: Retinoic Acid Response Element (RARE) transcription factor pathway; assay: Cignal RARE Reporter Assay (firefly luciferase) in HEK293 cells; format: cell-based; conditions: 24 h, vs water
Text: Objective: Retinoic Acid Receptor (RAR) controls gene transcription by binding to Retinoid Acid Response Elements (RAREs) in DNA. This process is modulated by all trans retinoic acid (ATRA)—a compound with well-established anti-aging skin benefits. […] Cignal RARE Reporter Assay® is designed to screen for such compounds using cell cultures. The objective of this project was to test 6 compounds (retinoic acid (ATRA), retinol, vitamin A palmitate, retinal, 10% w/w Near-1 in dimethylisosorbide, and 10% w/w retinoid ester in dimethylisosorbide) for the ability to activate RARE in this Cignal RARE Reporter Assay model.
(§1) Materials & Methods: The experiments were performed using HEK293 cells (Sigma, St. Louis, Mo.; cat. #85120602) seeded at 50,000 per well in a 96 well black-wall tissue culture plate. Cells were transfected by mixing Cignal Reporter Assay firefly/renilla luciferase constructs (cat. #CCS-016L; Qiagen) with Attractene Transfection Reagent (Qiagen) in Opti-MEM supplemented with 1% MEM Non-essential amino acid solution without L-glutamine. After medium change test materials were added and their effect on RARE induction was quantified 24 h later with the Dual-Luciferase Reporter Assay System (cat. #E1960; Promega).

[3] = tested on: Retinoid X receptor (RXR) transcription factor pathway; assay: Cignal RXR Reporter Assay (firefly luciferase) in HEK293 cells; format: cell-based; conditions: for RXR activation (% control): 24 h, vs water
Text: Objective: Retinoid X receptors (RXRs) are one class of nuclear receptors through which retinoids mediate their biological effects. These receptors function as transcription factors by binding as heterodimers to specific sequences in the promoters of target genes. The protein encoded by this gene is a member of the steroid and thyroid hormone receptor superfamily of transcriptional regulators. One of its ligands is all trans retinoic acid (ATRA)—a compound with well-established anti-aging skin benefits. […] Cignal RXR Reporter Assay® is designed to screen for such compounds (retinoic acid (ATRA), retinal, 10% w/w Near-1 in dimethylisosorbide, and 10% w/w retinoid ester in dimethylisosorbide) using cell cultures. The objective of this project was to test four compounds for the ability to activate RXR in this Cignal RXR Reporter Assay model.
as §1, with “The” for “Materials & Methods: The”, “Cignal RXR” for “Cignal”, “#CCS9044L;” for “#CCS-016L;”, “Lglutamine.” for “L-glutamine.”, “RXR” for “RARE”
RXR is a mixture of an inducible retinoid X receptor—responsive firefly luciferase construct and a constitutively expressing Renilla construct, which acts as an internal control for normalizing transfection efficiencies and monitoring cell viability. Signal quantification was obtained with ThermoFisher Scientific Luminoskan Ascent Microplate Luminometer.

IL-8 = IL-8 in MelanoDerm tissue culture-conditioned medium by ELISA (skin irritation surrogate); format: cell-based, Human; conditions: day 14
Description: Objective: The objective of this assay was to determine the ability of the test materials (dimethylisosorbide [DMI], retinoic acid [ATRA], 10% w/w NEAR-1 in dimethylisosorbide [NEAR-1], Niacinamide PC [NAD], and Kojic Acid [KA]) and combinations thereof to inhibit melanin production in MelanoDerm™ skin substitute model. The effect of these experimental conditions on the secretion of the proinflammatory cytokine IL-8 was also assessed, as a surrogate for skin irritation potential. Tissue culture-conditioned media were assayed for the presence of IL-8 by indirect ELISA (using Invitrogen IL-8 Human CytoSet, cat. #CHC 1303). For melanin quantification, the MelanoDerms were frozen, solubilized in Solvable™ (Perkin Elmer) and melanin was extracted at 95° C. overnight. The colorimetric signals proportional to the concentration of extracted melanin, as well as those proportional to the IL-8 in the tissue-conditioned medium in the ELISA test were quantified with Molecular Devices microplate spectrophotometer MAX190 at 490 nm and 405 nm.

With `O=c1cc(CO)occ1O` [KA, Kojic Acid] the “Color measurement (whitening units)” value ([1]; 2%) was 9.8 whitening units, the “Melanin Content” value ([1]; 2%) was 38 µg/mL and the “Melanin Content (% control)” value ([1]; 2%) was 38 % control. For the same molecule, the “Raw *L values” ([1]; 2%) was 55.3 and the Cytotoxicity (MelanoDerm tissues; 2%) was “Yes”.

For `CC1=C(/C=C/C(C)=C/C=C/C(C)=C/C(=O)OCCNC(=O)c2cccnc2)C(C)(C)CCC1` [NEAR-1, 2-(nicotinamido)-ethyl retinoate], the “RARE-mediated firefly luciferase expression, % control” value ([2]; 1 μM) was 461 % control, the “RARE-mediated firefly luciferase expression, Fold increase” value ([2]; 1 μM) was 4.6 and the “RARE-mediated firefly luciferase expression, % control” value ([2]; 5 μM) was 652 % control. The “RARE-mediated firefly luciferase expression, Fold increase” value ([2]; 5 μM) was 6.5, the “RARE-mediated firefly luciferase expression, % control” value ([2]; 10 μM) was 586 % control and the “RARE-mediated firefly luciferase expression, Fold increase” value ([2]; 10 μM) was 5.8. The “RXR activation (% control)” value ([3]; 1 μM) was 103 % control, the “RXR activation (% control)” value ([3]; 5 μM) was 112 % control and the “RXR activation (% control)” value ([3]; 10 μM) was 127 % control. For the same molecule, the “modulatory effect on RXR-mediated gene expression” value ([3]; 10 uM, statistically-significant) was 1.3 fold, the “Color measurement (whitening units)” value ([1]; 833 μM) was 30.0 whitening units and the “Raw *L values” ([1]; 833 μM) was 72.8. For the same molecule, the “Color measurement (whitening units)” value ([1]; 2.2 mM) was 27.4 whitening units, the “Melanin Content” value ([1]; 2.2 mM) was 22 µg/mL and the “Melanin Content (% control)” value ([1]; 2.2 mM) was 26 % control. For the same molecule, the “Raw *L values” ([1]; 2.2 mM) was 70.2, the “Whitening effect (ranking in the retinoid category)” value ([1]; NEAR-1 at 833 μM, Retinaldehyde 833 μM+NAD 835 μM) was “best whitening effect at non-cytotoxic concentration” and the Cytotoxicity (MelanoDerm tissues; 2.2 mM) was “Yes”. The “IL-8 (col. Units)” value (IL-8; 833 μM) was 208 col. Units and the “IL-8 (col. Units)” value (IL-8; 2.2 mM) was 209 col. Units.
